{"source": "paper PMC10094450", "about": "“Investigation of the Entry Pathway and Molecular Nature of σ1 Receptor Ligands” (International Journal of Molecular Sciences, 2023)", "key": {"Hsσ1-R [1]": {"target": "T1, Hsσ1-R (Homo sapiens, UniProt Q99720)", "T1 sequence (Q99720 whole entry)": "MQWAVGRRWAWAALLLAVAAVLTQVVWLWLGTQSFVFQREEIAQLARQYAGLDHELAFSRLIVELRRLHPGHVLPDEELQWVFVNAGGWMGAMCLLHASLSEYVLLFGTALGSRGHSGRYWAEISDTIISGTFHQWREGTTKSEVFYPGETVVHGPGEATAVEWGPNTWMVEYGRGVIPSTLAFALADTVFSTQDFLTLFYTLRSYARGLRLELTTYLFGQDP", "experiment": "Fluorescence titration (intrinsic tryptophan fluorescence quenching) of purified Hsσ1-R", "excerpt": "Since the intrinsic fluorescence of tryptophan residues within a given protein depends on the tryptophan’s environment, when a molecule binds near tryptophan residues it can lead to fluorescence intensity quenching (Figure 6). Thanks to the fact that two of the tryptophan residues (i.e., Trp89 and Trp164) are part of the previously identified Hsσ1-R binding site (Supplementary Figure S11), we were able to perform fluorescence titration to measure the affinity of selected molecules for this receptor.\nBinding of ligands to Hsσ1-R was followed by measuring the intrinsic protein fluorescence on a Fluoromax-4 spectrofluorometer (Horiba-Jobin Yvon). Fluorescence spectra were collected at 25 °C using a 1 cm path length cuvette, under continuous stirring. The excitation wavelength was 280 nm, and emission was recorded between 300 and 450 nm. The protein was used at 100 nM concentration in a buffer containing 0.01% LMNG, 0.001% CHS, 100 mM NaCl and 20 mM HEPES pH 7.5. The ligands were added to the protein solution, starting from a 10 mM stock solution in 100% DMSO, at a final concentration within the range 0.01 to 100 μM. The measurements were performed after each addition, following 3 min of incubation.\nThis equation describes a two-site model in which the binding sites are independent of each other, and at each site the interaction is non-cooperative [71]:(2) ΔF=ΔFmax1×Ltot/KD1+Ltot+ΔFmax2×Ltot/KD2+Ltot where: ΔF is the fluorescence quenching due to ligand binding; ΔFmax is the maximum fluorescence quenching possible in the experiment; [L]tot is the total concentration of the ligand; and KD1 and KD2 are the dissociation constants for the two sites."}, "Hsσ1-R [2]": {"target": "T1, Hsσ1-R", "design": "FLAG; made in house; host or cells: Sf9 insect cells (baculovirus, pFastbac1); method as in PMID 33525510", "settings": "purified σ1R immobilized on a matrix; read-out: KD by SPR; cited from earlier work"}, "[3]": {"settings": "read-out: KD2, low-affinity site, two-site model, 25 °C"}}, "note": "Like-named read-outs stand apart in the source and are kept apart here.", "data": [{"smiles": "CC(=O)C1=CC[C@H]2[C@@H]3CCC4=CC(=O)CC[C@]4(C)[C@H]3CC[C@]12C", "note": "[16,17-didehydroprogesterone]", "values": [{"measurement": "Kd", "setting": "Hsσ1-R [1]; read-out: KD1, high-affinity site, two-site model, 25 °C", "value": "0.01 ± 0.004", "unit": "µM"}, {"measurement": "Kd", "setting": "Hsσ1-R [1]; [3]", "value": "15.8 ± 4.03", "unit": "µM"}, {"measurement": "KD for the high affinity site, fold better than that of pridopidine", "setting": "Hsσ1-R [1]; versus pridopidine, same assay", "value": 25, "unit": "fold"}]}, {"smiles": "COc1cc(C(C)=O)ccc1OCCCN1CCC(c2noc3cc(F)ccc23)CC1", "note": "[Iloperidone]", "values": [{"measurement": "Kd", "setting": "Hsσ1-R [1]", "value": "0.019 ± 0.015", "unit": "µM"}, {"measurement": "Kd", "setting": "Hsσ1-R [1]; [3]", "value": "33.1 ± 14.4", "unit": "µM"}, {"measurement": "Kd", "setting": "Hsσ1-R [2]", "value": 5, "unit": "µM"}]}]}
